# Target: T1, full length SGK1 (Homo sapiens, UniProt O00141)
# T1 construct: 125 μM full length SGK1 (Life Technologies Part #PR7358A); purchased Life Technologies PR7358A
# T1 sequence (O00141 1-431): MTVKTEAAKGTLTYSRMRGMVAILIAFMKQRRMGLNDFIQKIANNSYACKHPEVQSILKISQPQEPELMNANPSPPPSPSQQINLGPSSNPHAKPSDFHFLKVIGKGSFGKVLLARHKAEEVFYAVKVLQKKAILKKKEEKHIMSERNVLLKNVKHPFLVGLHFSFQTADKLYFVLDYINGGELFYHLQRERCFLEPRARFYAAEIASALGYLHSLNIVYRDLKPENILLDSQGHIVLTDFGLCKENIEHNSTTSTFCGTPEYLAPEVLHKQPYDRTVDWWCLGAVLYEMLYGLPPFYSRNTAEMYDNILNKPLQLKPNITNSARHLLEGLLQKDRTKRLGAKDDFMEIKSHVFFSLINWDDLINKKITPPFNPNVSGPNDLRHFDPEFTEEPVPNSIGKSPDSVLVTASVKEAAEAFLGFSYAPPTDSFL
# Assay: SGK1 inhibition Assay A (Caliper LabChip electrophoretic separation of fluorescent peptide substrate and phosphorylated product)
# Type: biochemical
# Settings: Assay A; 20 μM ATP, 40 min incubation; read-out: SGK1 IC50
row,IC50,Structure (SMILES)
1,14 nM,"CC(=O)N1CC=C(c2cc(N3CCC[C@@H](NC(=O)c4sc(Cl)cc4OCCNCC(F)F)C3)c3c(N)ncnn23)C1 [Example 301, (R)-N-(1-(7-(1-acetyl-2,5-dihydro-1H-pyrrol-3-yl)-4-aminopyrrolo[2,1-f][1,2,4]triazin-5-yl)piperidin-3-yl)-5-chloro-3-(2-((2,2-difluoroethyl)amino)ethoxy)thiophene-2-carboxamide]"
2,4 nM,"CN(C)CCOc1cc(C(F)F)sc1C(=O)N[C@@H]1CCCN(c2cc(-c3ccc(C(N)=O)c(F)c3)n3ncnc(N)c23)C1 [Example 302, (R)—N-(1-(4-amino-7-(4-carbamoyl-3-fluorophenyl)pyrrolo[2,1-f][1,2,4]triazin-5-yl)piperidin-3-yl)-5-(difluoromethyl)-3-(2-(dimethylamino)ethoxy)thiophene-2-carboxamide]"
3,10 nM,"COC(=O)N1CC=C(c2cc(N3CCC[C@@H](NC(=O)c4sc(C(F)F)cc4OCCN(C)C)C3)c3c(N)ncnn23)C1 [Example 303, Methyl (R)-3-(4-amino-5-(3-(5-(difluoromethyl)-3-(2-(dimethylamino)ethoxy)thiophene-2-carboxamido)piperidin-1 - yl)pyrrolo [2,1-f][1,2,4]triazin-7-yl)-2,5-dihydro-1H-pyrrole-1-carboxylate]"
4,3 nM,"CN(C)CCOc1cc(C(F)F)sc1C(=O)N[C@@H]1CCCN(c2cc(-c3ccnc(N)c3)n3ncnc(N)c23)C1 [Example 304, (R)-N-(1-(4-amino-7-(2-aminopyridin-4-yl)pyrrolo [2,1-f][1,2,4]triazin-5-yl)piperidin-3-yl)-5-(difluoromethyl)-3-(2-(dimethylamino)ethoxy) thiophene-2-carboxamide]"
5,15 nM,"CC(=O)N1CC=C(c2cc(N3CCC[C@@H](NC(=O)c4sc(C(F)F)cc4OCCN(C)C)C3)c3c(N)ncnn23)C1 [Example 305, (R)-N-(1-(7-(1-acetyl-2,5-dihydro-1H-pyrrol-3-yl)-4-aminopyrrolo[2,1-f][1,2,4]triazin-5-yl)piperidin-3-yl)-5-(difluoromethyl)-3-(2-(dimethylamino)ethoxy)thiophene-2-carboxamide]"
6,11 nM,"CN(C)CCOc1cc(C(F)F)sc1C(=O)N[C@@H]1CCCN(c2cc(-c3ccc(C(N)=O)nc3)n3ncnc(N)c23)C1 [Example 306, (R)-5-(4-amino-5-(3-(5-(difluoromethyl)-3-(2-(dimethylamino)ethoxy)thiophene-2-carboxamido)piperidin-1-yl)pyrrolo[2,1-f] [1,2,4]triazin-7-yl)picolinamide]"
7,27 nM,"CN(C)CCOc1cc(C(F)F)sc1C(=O)N[C@@H]1CCCN(c2cc(-c3cncnc3)n3ncnc(N)c23)C1 [Example 307, (R)-N-(1-(4-amino-7-(pyrimidin-5-yl)pyrrolo[2,1-f] [1,2,4]triazin-5-yl)piperidin-3-yl)-5-(difluoromethyl)-3-(2-(dimethylamino)ethoxy)thiophene-2-carboxamide]"
8,1 nM,"CN(C)CCOc1cc(C(F)F)sc1C(=O)N[C@@H]1CCCN(c2cc(-c3ccc(C=O)cc3)n3ncnc(N)c23)C1 [Example 308, (R)-N-(1-(4-amino-7-(4-formylphenyl)pyrrolo[2,1-f][1,2,4]triazin-5-yl)piperidin-3-yl)-5-(difluoromethyl)-3-(2-(dimethylamino)ethoxy)thiophene-2-carboxamide]"
9,17 nM,"CN(C)CCOc1cc(C(F)F)sc1C(=O)N[C@@H]1CCCN(c2cc(-c3ccc(=O)n(CC(F)F)c3)n3ncnc(N)c23)C1 [Example 309, (R)-N-(1-(4-amino-7-(1-(2,2-difluoroethyl)-6-oxo-1,6-dihydropyridin-3-yl)pyrrolo[2,1-f][1,2,4]triazin-5-yl)piperidin-3-yl)-5-(difluoromethyl)-3-(2-(dimethylamino)ethoxy)thiophene-2-carboxamide]"
10,3 nM,"CN(C)CCOc1cc(C(F)F)sc1C(=O)N[C@@H]1CCCN(c2cc(-c3ccc(C#N)nc3)n3ncnc(N)c23)C1 [Example 310, (R)-N-(1-(4-amino-7-(6-cyanopyridin-3-yl)pyrrolo[2,1-f] [1,2,4]triazin-5-yl)piperidin-3-yl)-5-(difluoromethyl)-3-(2-(dimethylamino)ethoxy)thiophene-2-carboxamide]"
11,32 nM,"Cc1cc(-c2cc(N3CCC[C@@H](NC(=O)c4sc(C(F)F)cc4OCCN(C)C)C3)c3c(N)ncnn23)cc(C(F)F)n1 [Example 312, (R)-N-(1-(4-amino-7-(2-(difluoromethyl)-6-methylpyridin-4-yl)pyrrolo[2,1-f] [1,2,4]triazin-5-yl)piperidin-3-yl)-5-(difluoromethyl)-3-(2-(dimethylamino)ethoxy)thiophene-2-carboxamide]"
12,4 nM,CN(C)CCOc1cc(C(F)F)sc1C(=O)N[C@@H]1CCCN(c2cc(-c3ccc(C#N)c(F)c3)n3ncnc(N)c23)C1 [Example 313]
13,374 nM,"Nc1ncnn2c(-c3cncnc3)cc(N3CCC[C@@H](NC(=O)c4sc(C(F)F)cc4N4CC5(COC5)C4)C3)c12 [Example 314, (R)—N-(1-(4-amino-7-(pyrimidin-5-yl)pyrrolo[2,1-f][1,2,4]triazin-5-yl)piperidin-3-yl)-5-(difluoromethyl)-3-(2-oxa-6-azaspiro[3.3]heptan-6-yl)thiophene-2-carboxamide]"
14,65 nM,"CC(=O)N1CC=C(c2cc(N3CCC[C@@H](NC(=O)c4sc(C(F)F)cc4N4CC5(COC5)C4)C3)c3c(N)ncnn23)C1 [Example 315, (R)-N-(1-(7-(1-acetyl-2,5-dihydro-1H-pyrrol-3-yl)-4-aminopyrrolo[2,1-f][1,2,4]triazin-5-yl)piperidin-3-yl)-5-(difluoromethyl)-3-(2-oxa-6-azaspiro[3.3]heptan-6-yl)thiophene-2-carboxamide]"
15,31 nM,"Nc1ncnn2c(-c3ccc(=O)n(CC(F)F)c3)cc(N3CCC[C@@H](NC(=O)c4sc(C(F)F)cc4N4CC5(COC5)C4)C3)c12 [Example 316, (R)-N-(1-(4-amino-7-(1-(2,2-difluoroethyl)-6-oxo-1,6-dihydropyridin-3-yl)pyrrolo[2,1-f][1,2,4]triazin-5-yl)piperidin-3-yl)-5-(difluoromethyl)-3-(2-oxa-6-azaspiro[3.3]heptan-6-yl)thiophene-2-carboxamide]"
16,34 nM,"COC(=O)N1CC=C(c2cc(N3CCC[C@@H](NC(=O)c4sc(C(F)F)cc4N4CC5(COC5)C4)C3)c3c(N)ncnn23)C1 [Example 317, Methyl (R)-3-(4-amino-5-(3-(5-(difluoromethyl)-3-(2-oxa-6-azaspiro[3.3]heptan-6-yl)thiophene-2-carboxamido)piperidin-1-yl)pyrrolo[2,1-f][1,2,4]triazin-7-yl)-2,5-dihydro-1H-pyrrole-1-carboxylate]"
17,15 nM,"N#Cc1ccc(-c2cc(N3CCC[C@@H](NC(=O)c4sc(C(F)F)cc4N4CCOCC4)C3)c3c(N)ncnn23)cn1 [Example 318, (R)—N-(1-(4-amino-7-(6-cyanopyridin-3-yl)pyrrolo[2,1-f][1,2,4]triazin-5-yl)piperidin-3-yl)-5-(difluoromethyl)-3-morpholinothiophene-2-carboxamide]"
18,11 nM,"CC(=O)N1CC=C(c2cc(N3CCC[C@@H](NC(=O)c4sc(C(F)F)cc4N4CCOCC4)C3)c3c(N)ncnn23)C1 [Example 319, (R)-N-(1-(7-(1-acetyl-2,5-dihydro-1H-pyrrol-3-yl)-4-aminopyrrolo[2,1-f][1,2,4]triazin-5-yl)piperidin-3-yl)-5-(difluoromethyl)-3-morpholinothiophene-2-carboxamide]"
19,13 nM,"COC(=O)N1CC=C(c2cc(N3CCC[C@@H](NC(=O)c4sc(C(F)F)cc4N4CCOCC4)C3)c3c(N)ncnn23)C1 [Example 321, Methyl (R)-3-(4-amino-5-(3-(5-(difluoromethyl)-3-morpholinothiophene-2-carboxamido)piperidin-1-yl)pyrrolo[2,1-f][1,2,4]triazin-7-yl)-2,5-dihydro-1H-pyrrole-1-carboxylate]"
20,96 nM,"CC(=O)N1CC=C(c2cc(N3CCC[C@@H](NC(=O)c4sc(C(F)F)cc4C4=CCN(C)CC4)C3)c3c(N)ncnn23)C1 [Example 322, (R)—N-(1-(7-(1-acetyl-2,5-dihydro-1H-pyrrol-3-yl)-4-aminopyrrolo[2,1-f][1,2,4]triazin-5-yl)piperidin-3-yl)-5-(difluoromethyl)-3-(1-methyl-1,2,3,6-tetrahydropyridin-4-yl)thiophene-2-carboxamide]"
21,19 nM,"CN1CC=C(c2cc(C(F)F)sc2C(=O)N[C@@H]2CCCN(c3cc(-c4ccc(C(N)=O)c(F)c4)n4ncnc(N)c34)C2)CC1 [Example 323, (R)—N-(1-(4-amino-7-(4-carbamoyl-3-fluorophenyl)pyrrolo[2,1-f][1,2,4]triazin-5-yl)piperidin-3-yl)-5-(difluoromethyl)-3-(1-yl)-5-(difluoromethyl)-3-(1-methyl-1,2,3,6-tetrahydropyridin-4-yl)thiophene-2-carboxamide]"
22,4 nM,"COC(=O)N1CC=C(c2cc(N3CCC[C@@H](NC(=O)c4sc(C(F)F)cc4OCCN)C3)c3c(N)ncnn23)C1 [Example 324, methyl (R)-3-(4-amino-5-(3-(3-(2-aminoethoxy)-5-(difluoromethyl)thiophene-2-carboxamido)piperidin-1-yl)pyrrolo[2,1-f][1,2,4]triazin-7-yl)-2,5-dihydro-1H-pyrrole-1-carboxylate]"
23,15 nM,"NCCOc1cc(C(F)F)sc1C(=O)N[C@@H]1CCCN(c2cc(-c3cncnc3)n3ncnc(N)c23)C1 [Example 325, (R)-N-(1-(4-amino-7-(pyrimidin-5-yl)pyrrolo[2,1-f][1,2,4]triazin-5-yl)piperidin-3-yl)-3-(2-aminoethoxy)-5-(difluoromethyl)thiophene-2-carboxamide]"
